The values below come from ChEMBL document CHEMBL3882727, “Imidazopyridine Kinase Inhibitors” (2008).

Series [1] is described as follows: Toxicity in nude mouse allografted with mouse LISN cells assessed as body weight loss at 30 mg/kg, qd for 21 days measured during compound dosing. The note with it: in vivo, 504 h. Format: organism-based.
Series [2] can be described thus: Toxicity in nude mouse allografted with mouse LISN cells assessed as body weight loss at 15 mg/kg, bid for 21 days measured during compound dosing. Format: organism-based. The note with it: in vivo, 504 h.
Series [3] can be described thus: Toxicity in nude mouse allografted with mouse LISN cells assessed as body weight loss at 30 mg/kg, qd for every 3 days per week for 3 weeks measured during compound dosing. Format: organism-based. The note with it: in vivo.
Series [4] can be described thus: Toxicity in nude mouse xenografted with human COLO205 cells assessed as body weight loss at 100 mg/kg, qd for 21 days measured within 10 days of compound dosing relative to vehicle-treated control. Format: organism-based, COLO 205. The note with it: in vivo. (Xenograft models place foreign cells or tissue in a host animal.)
Series [5] can be described thus: Toxicity in nude mouse xenografted with human COLO205 cells assessed as body weight loss at 30 mg/kg, bid for 21 days measured within 10 days of compound dosing relative to vehicle-treated control. Format: organism-based, COLO 205. The note with it: in vivo.
A short description of series [6]: Antitumor activity against human COLO205 cells xenografted in nude mouse assessed as tumor growth inhibition at 10 mg/kg, qd for 21 days relative to vehicle-treated control. It is filed as functional. The note with it: COLO 205, 504 h, read-out: TGI.
Series [7] can be described thus: Toxicity in nude mouse xenografted with human COLO205 cells assessed as body weight loss at 10 to 30 mg/kg, bid for 21 days measured during compound dosing. It is filed as organism-based, COLO 205. The note with it: in vivo, 504 h.
The nature of series [8]: Toxicity in nude mouse xenografted with human BT474 cells assessed as body weight loss at 15 to 60 mg/kg, qd for 3 weeks without dosing on weekends measured during compound dosing. Format: organism-based, BT-474. The note with it: in vivo, 504 h.
The nature of series [9]: Toxicity in nude mouse xenografted with human BT474 cells assessed as body weight loss at 15 mg/kg, bid for 3 weeks without dosing on weekends measured during compound dosing. The note with it: in vivo, 504 h. It is filed as organism-based, BT-474.
Series [10] can be described thus: Growth inhibition of human MDA-MB-453 cells assessed as combination index in presence of lapatinib after 3 days by methylene blue staining-based assay. Format: functional.
Series [11] can be described thus: Growth inhibition of human MDA-MB-468 cells assessed as combination index in presence of lapatinib after 3 days by methylene blue staining-based assay. Format: functional.
Series [12] in a line: Growth inhibition of human MCF7 cells assessed as combination index in presence of lapatinib after 3 days by methylene blue staining-based assay. It is filed as functional.
Series [13] can be described thus: Growth inhibition of human A549 cells assessed as combination index in presence of lapatinib after 3 days by methylene blue staining-based assay. It is filed as functional.
The nature of series [14]: Toxicity in nude mouse allografted with mouse LISN cells assessed as body weight loss at 30 to 300 mg/kg, qd for 21 days measured during compound dosing. It is filed as organism-based. The note with it: 504 h.

SMILES strings stand for the structures. Some results are limits rather than exact numbers.

With `COc1cc(N2CCC(N3CCN(CCF)CC3)CC2)ccc1Nc1nccc(-c2c(-c3cccc(C(=O)Nc4c(F)cccc4F)c3)nc3ccccn23)n1`, the Activity result in series [1] was “Non-Toxic”; in [2], “Non-Toxic”; in series [3], “Toxic”; in [4], over 20%; in [5], over 20%; in series [7], “Non-Toxic”. In addition, the Activity entry in [8] and in [9] was “Non-Toxic” each time. Moreover, the inhibition in vivo at 10 mg/kg in [6] was 42%. For the same compound, the CI is listed as 0.31 in series [10], 0.78 - 1.25 in series [11], 1 in series [12] and under 1 in [13].

Regarding `COc1cc(N2CCC(N3CCN(S(C)(=O)=O)CC3)CC2)ccc1Nc1nccc(-c2c(-c3cccc(C(=O)Nc4c(F)cccc4F)c3)nc3ccccn23)n1`, the Activity result in series [14] is recorded as “Non-Toxic”.
